Results as given in patent US6403574B1, “Azetidinecarboxamide derivatives for treating CNS disorders” (Vernalis Research Limited, priority 1998, dated 2002).

What was measured:
[1] = tested on: elevated zero-maze model of anxiety; assay: Anxiolytic activity in the elevated zero-maze model; format: in vivo, rat; conditions: dose of 30 mg/Kg, orally 1 hour prior to zero-maze testing
Excerpt: Measurement of Anxiolytic Activity in Mice Using the Elevated Zero-maze Model
Food and water are made freely available.
The maze is cleaned with a 5% methanol/water solution and dried thoroughly between test sessions.

[2] = tested on: 3-MPA-induced seizures in T/O strain mice; assay: Antagonism of 3-MPA-induced seizures; format: in vivo, mouse; conditions: test drug 30 mg/kg p.o. 60 min before 3-MPA i.v.
Protocol: Antagonism of 3-MPA-Induced Seizures Several animal seizure models are available for the screening and characterisation of anticonvulsant (antiepileptic) drugs. Most models employ a chemical convulsant to induce seizures and the anticonvulsant potencies of novel compounds are measured in terms of their ability to increase the dose of convulsant required to induce a seizure response (or to prolong the latency to seizure onset following a bolus dose of the convulsant). Most chemical convulsants work by blocking the neurotransmitter function of gamma-aminobutyric acid (GABA), the predominant inhibitory neurotransmitter in the mammalian brain. This can be achieved by blocking the postsynaptic action of GABA using pentylenetetrazol or bicuculline, or via a presynaptic action using a GABA synthesis inhibitor to decrease GABA release into the synapse. In this case, the inhibitor of glutamate decarboxylase (GAD), 3-mercaptopropionic acid (3-MPA), was used as the convulsant challenge agent. […] Male albino T/O strain mice (obtained from Tuck) weighing 28-40 g were used in these studies. Animals were assigned randomly to treatment groups and vehicle or test drug (at a dose of 30 mg/kg) were administered p.o. to groups of 12 animals 60 min before the administration of a bolus dose of 3-MPA intravenously. Immediately following 3-MPA administration, each mouse was placed individually into a cage for observation. The seizure response of each animal was scored quantally as present or absent (response or non-response) during the 5 min period immediately following 3-MPA administration. A seizure response was defined as the onset of the initial clonic phase of the seizure (abrupt loss of righting reflex accompanied by vocalisation). The seizure threshold (in terms of mg/kg i.v. of 3-MPA required to evoke a seizure response) was determined in each treatment group by a sequential up/down method followed by modified probit analysis of the quantal data. A range of doses of 3-MPA was prepared (12.5-200.0 mg/kg i.v.) increasing by a constant geometric factor […], which was found in pilot studies to generate suitable data for analysis by this method. In these studies, 3-MPA was obtained from Sigma. Test compounds were prepared as solutions dissolved in 45% w/v aqueous 2-hydroxypropyl-β-cyclodextrin. 3-MPA was dissolved in isotonic saline and its pH adjusted to 6 using 1M sodium hydroxide solution. Drugs were administered in a dose volume of 10 ml/kg body weight. SC=seizure threshold after treatment with test drug SV=seizure threshold in vehicle treated group

GABAA receptor = assay: Binding affinity to the GABAA receptor with [35S]-TBPS; conditions: membranes from rat fore-brain; [35S]-TBPS 1 nM; read-out: IC50, concentration required to displace 50% of the specific [35S]-TBPS binding
Protocol: Measurement of Binding Affinity to the GABAA Receptor with [^35S]-TBPS
The ability of test compounds to bind to the GABAA receptor was measured in membranes prepared from rat fore-brain using the procedure described by Green et al (Green, A. R., Misra, A., Murray, T. K., Snape, M. F. & Cross, A. J. Neurophamacology, 1996, 35, 1243-1250).
Binding assays were performed in plastic microtitre plates. In each study total assay volume contained [^35S]-TBPS (1 nM final concentration), membrane preparation and displacing drugs where appropriate. Drug solutions were prepared at a concentration of 10 mM in an appropriate solvent (EtOH, DMSO or H2O) and then diluted with assay buffer. Non-specific binding was determined using GABA. The free ligand concentration was determined by counting aliquots of the [^35S]-TBPS solution. The concentration of test compounds required to displace 50% of the specific binding (IC50) was determined from displacement curves.

Structure (SMILES)	melting point	other results
C=CCNC(=O)N1CC(OCc2ccc(Cl)cc2)C1 [Example 1, 3-(4-Chlorobenzyloxy)-N-(2-propenyl)azetidine-1-carboxamide]	110 to 111 °C	Anxiolytic activity (increase in the frequency of head dips) [1]: effective; SC = seizure threshold after treatment with test drug [2]: 35.98 mg/kg i.v. of 3-MPA
C=CCNC(=O)N1CC(OCc2ccc(Cl)c(Cl)c2)C1 [Example 2, 3-(3,4-Dichlorobenzyloxy)-N-(2-propenyl)azetidine-1-carboxamide]	88 to 89 °C	SC = seizure threshold after treatment with test drug [2]: 66.7 mg/kg i.v. of 3-MPA; IC50 (GABAA receptor): 56 µM
C=CCNC(=O)N1CC(OCc2cccc(C(F)(F)F)c2)C1 [Example 3, 3-(3-(Trifluoromethyl)benzyloxy)-N-(2-propenyl)azetidine-1-carboxamide]	108 °C	SC = seizure threshold after treatment with test drug [2]: 129.3 mg/kg i.v. of 3-MPA; IC50 (GABAA receptor): 87 µM
C=CCNC(=O)N1CC(OCc2ccc(C(F)(F)F)cc2)C1 [Example 4, 3-(4-(Trifluoromethyl)benzyloxy)-N-(2-propenyl)azetidine-1-carboxamide]	120 °C	SC = seizure threshold after treatment with test drug [2]: 75.7 mg/kg i.v. of 3-MPA; IC50 (GABAA receptor): 91 µM
C=CCNC(=O)N1CC(OCc2ccc(F)cc2)C1 [Example 5, 3-(4-Fluorobenzyloxy)-N-(2-propenyl)azetidine-1-carboxamide]		SC = seizure threshold after treatment with test drug [2]: 42.8 mg/kg i.v. of 3-MPA
C=CCNC(=O)N1CC(OC(c2ccc(Cl)cc2)c2ccc(Cl)cc2)C1 [Example 6, 3-(Bis(4-chlorophenyl)methoxy)-N-(2-propenyl)azetidine-1-carboxamide]		IC50 (GABAA receptor): 64 µM
C[C@@H](O)CNC(=O)N1CC(OC(c2ccc(Cl)cc2)c2ccc(Cl)cc2)C1 [Example 7, (R)-3-(Bis(4-chlorophenyl)methoxy)-N-(2-hydroxypropyl)azetidine-1-carboxamide]		IC50 (GABAA receptor): 32 µM
C=CCNC(=O)N1CC(OCc2ccc(C#N)cc2)C1 [Example 10]	95 to 96 °C	
C=CCNC(=O)N1CC(OCc2ccc(-c3ccccc3)cc2)C1 [Example 11]	160 °C	
C=CCNC(=O)N1CC(OCc2ccc3ccccc3c2)C1 [Example 12]	141 to 142 °C	
CCCNC(=O)N1CC(OCc2ccc(Cl)c(Cl)c2)C1 [Example 13]	89 to 90 °C	
C=CCNC(=O)N1CC(OCc2cccc(Cl)c2)C1 [Example 14]	67 to 68 °C	
C=CCNC(=O)N1CC(OCc2cccc(F)c2)C1 [Example 15]	59 to 60 °C	
CCCNC(=O)N1CC(OCc2ccc(C(F)(F)F)cc2)C1 [Example 16]	128 to 129 °C	
CCCNC(=O)N1CC(OCc2cccc(C(F)(F)F)c2)C1 [Example 17]	62 to 63 °C	
C[C@H](O)CNC(=O)N1CC(OCc2cccc(C(F)(F)F)c2)C1 [Example 18]	67 to 68 °C	
C[C@@H](O)CNC(=O)N1CC(OCc2cccc(C(F)(F)F)c2)C1 [Example 19]	67 to 68 °C	
C[C@@H](O)CNC(=O)N1CC(OCc2ccc(C(F)(F)F)cc2)C1 [Example 20]	97 to 98 °C	
C[C@H](O)CNC(=O)N1CC(OCc2ccc(C(F)(F)F)cc2)C1 [Example 21]	97 to 98 °C	

Structure (SMILES)	melting point	other results
C[C@@H](O)CNC(=O)N1CC(OCc2ccc(Cl)c(Cl)c2)C1 [Example 22]	88 to 89 °C	
C[C@H](O)CNC(=O)N1CC(OCc2ccc(Cl)c(Cl)c2)C1 [Example 23]	88 to 89 °C	
C[C@H](O)CNC(=O)N1CC(OCc2ccc(Cl)cc2)C1 [Example 24]	85 to 86 °C	
C#CCNC(=O)N1CC(OCc2cccc(C(F)(F)F)c2)C1 [Example 25]	90 to 91 °C	
C=CCNC(=O)N1CC(OCc2ccccc2)C1 [Example 26]	76 to 77 °C	
C[C@H](O)CNC(=O)N1CC(OCc2ccc(F)cc2)C1 [Example 27]	73 to 74 °C	
C=CCNC(=O)N1CC(OCc2ccccc2C(F)(F)F)C1 [Example 28]	63 °C	
C=CCNC(=O)N1CC(OCc2cc(F)ccc2F)C1 [Example 29]	75 °C	
C=CCNC(=O)N1CC(OCc2ccc(Cl)cc2Cl)C1 [Example 30]	100 °C	
C=CCNC(=O)N1CC(OCc2cc(F)cc(F)c2)C1 [Example 31]	79 °C	
C=CCNC(=O)N1CC(OCc2ccc(F)c(F)c2)C1 [Example 33]	82.5 to 85 °C	
C=CCNC(=O)N1CC(OCc2ccc(F)cc2F)C1 [Example 34]	91 to 92.5 °C	
C=CCNC(=O)N1CC(OCc2cc(C(F)(F)F)cc(C(F)(F)F)c2)C1 [Example 35]	80.5 to 81.5 °C	
C[C@H](O)CNC(=O)N1CC(OCc2ccc(Cl)cc2)C1 [Example 36]	76 to 78 °C	
C#CCNC(=O)N1CC(OCc2ccc(Cl)cc2)C1 [Example 37]	123 to 124 °C	
C#CCNC(=O)N1CC(OCc2ccc(C(C)(C)C)cc2)C1 [Example 38]	94 to 96 °C	
C[C@@H](O)CNC(=O)N1CC(OCc2ccc(F)cc2)C1 [Example 40]	72 to 73 °C	
C=CCNC(=O)N1CC(OCc2ccc(C(C)(C)C)cc2)C1 [Example 41]	79 to 80 °C	
C#CCNC(=O)N1CC(OCc2ccc(F)cc2)C1 [Example 43]	94 to 96 °C	
